In experiment [1] the test system is N2a. Kind of experiment: Neurotrophic activity in mouse Neuro2a cells assessed as increase in neurite length at 0.01 uM incubated for 48 hrs relative to untreated control. The experiment is classed as functional.
Experiment [2] concerns N2a. As to the kind of experiment: Neurotrophic activity in mouse Neuro2a cells assessed as increase in neurite length at 0.1 uM incubated for 48 hrs relative to untreated control. The class given is functional.
Experiment [3] has as its system N2a. Kind of experiment: Cytotoxicity in mouse Neuro2a cells assessed as reduction in cell viability by MTT assay. The class given is cell-based.
Experiment [4] concerns N2a. As to the kind of experiment: Neurotrophic activity in mouse Neuro2a cells assessed as increase in NT3 mRNA expression at 0.1 uM incubated for 2 hrs by RT-qPCR method relative to untreated control.
Experiment [5] relates to N2a. As to the kind of experiment: Neurotrophic activity in mouse Neuro2a cells assessed as increase in BDNF mRNA expression at 0.1 uM incubated for 2 hrs by RT-qPCR method relative to untreated control.
Experiment [6] has as its system N2a. Kind of experiment: Neurotrophic activity in mouse Neuro2a cells assessed as increase in NT3 mRNA expression at 0.01 uM incubated for 2 hrs by RT-qPCR method relative to untreated control.
Experiment [7] deals with N2a. As to the kind of experiment: Neurotrophic activity in mouse Neuro2a cells assessed as increase in BDNF mRNA expression at 0.01 uM incubated for 2 hrs by RT-qPCR method relative to untreated control.

Molecules are shown by their SMILES. Calls of active or inactive are those of the source. The rule behind the calls is not given here.

Regarding `C#CC[C@@H]1C[C@H](n2cccc2C(=O)CC)C(=O)O1`, the Activity with N2a [1] amounted to 11.63%; in the experiment with N2a [2], 9.47%. Further, the IC50 with N2a [3] was found to be 40.6 µM.
For the compound `CC(=O)c1cccn1[C@H]1C[C@H](Cc2cn([C@H]3C[C@H](n4cc(C)c(=O)[nH]c4=O)O[C@@H]3CO)nn2)OC1=O`, the Activity with N2a [1] worked out at 9.52%; with N2a [2] it was 14.8%. Also, the IC50 in the experiment on N2a [3] worked out at 95.8 µM.
`CC(=O)c1cccn1[C@H]1C[C@@H](Cc2cn(Cc3ccccc3)nn2)OC1=O`: the Activity with N2a [1] amounted to 5.41%; with N2a [2], 15.62%. In addition, the IC50 with N2a [3] stood at 91.6 µM.
The matching figures for `C#CC[C@@H]1C[C@H](n2cccc2)C(=O)O1`: 6.56%, 10.9% and at least 100 µM.
Turning to `C#CC[C@@H]1C[C@H](n2cccc2C(C)=O)C(=O)O1`, the values for the Activity in the experiment on N2a [1] and with N2a [2] were 8.03% and 37.01%, respectively. Also, the IC50 in the experiment on N2a [3] was found to be 121 µM. Besides, the result with N2a [4] was inactive. In addition, in the experiment on N2a [5], the result was Active.
In the case of `C#CC[C@H]1C[C@H](n2cccc2C(=O)CC)C(=O)O1`, the Activity in the experiment with N2a [1] came to 4.63%; in the experiment with N2a [2], 9.5%. Moreover, in the experiment with N2a [3], the IC50 came to 40.7 µM.
Regarding `C#CC[C@H]1C[C@H](n2cccc2)C(=O)O1`, the Activity in the experiment with N2a [1] is 12.15%; with N2a [2] it was 14.56%. In the experiment on N2a [3], the IC50 is over 100 µM.
With `C#CC[C@@H]1C[C@H](n2cccc2C(=O)C(F)(F)F)C(=O)O1`, the Activity in the experiment with N2a [1] is on record as 33.74%; in the experiment on N2a [2], 41.02%. In the experiment with N2a [3], the IC50 is over 100 µM. Besides, the result with N2a [6] was inactive. For the same compound, the outcome in the experiment on N2a [7] was Active.
Consider `CC(=O)c1cccn1[C@H]1C[C@@H](Cc2cn([C@H]3C[C@H](n4cc(C)c(=O)[nH]c4=O)O[C@@H]3CO)nn2)OC1=O`, for which the Activity in the experiment on N2a [1] came out at 3.67%; in the experiment on N2a [2], 6.61%. In the experiment with N2a [3], the IC50 worked out at 96.2 µM.
In the case of `C#CC[C@H]1C[C@H](n2cccc2C(=O)C(F)(F)F)C(=O)O1`, the Activity in the experiment on N2a [1] stood at 7.76%; in the experiment on N2a [2], 22.22%. For the same compound, in the experiment with N2a [3], the IC50 was determined as 97.8 µM.
The matching figures for `CC(=O)c1cccn1[C@H]1C[C@@H](CC#Cc2ccc([N+](=O)[O-])cc2)OC1=O`: -7.58%, 9.11% and over 100 µM.
Consider `CC(=O)c1cccn1[C@H]1C[C@H](Cc2cn(Cc3ccccc3)nn2)OC1=O`, for which the Activity is -2.23% in the experiment on N2a [1] and 17.02% in the experiment on N2a [2]. The 50% inhibitory concentration (IC50) with N2a [3] was found to be 66.9 µM.
Consider `C#CC[C@H]1C[C@H](n2cccc2C(C)=O)C(=O)O1`, for which the figures for the Activity with N2a [1] and with N2a [2] were 9.04% and 20.95%, respectively. Moreover, the IC50 in the experiment with N2a [3] is over 100 µM.
The matching figures for `CC(=O)c1cccn1[C@H]1C[C@H](CC#Cc2ccc([N+](=O)[O-])cc2)OC1=O`: 1.43%, 13.27% and over 100 µM.

These data come from ChEMBL document CHEMBL4184256, “Synthesis and biological evaluation of longanlactone analogues as neurotrophic agents” (Bioorg Med Chem Lett, 2018).
